# Results published in publication PMC6895048, “4,5-Disubstituted 1,2,3-triazoles: Effective Inhibition of Indoleamine 2,3-Dioxygenase 1 Enzyme Regulates T cell Activity and Mitigates Tumor Growth” (Scientific Reports, 2019).
# Assays:
# [1] = biological target: T1, purified human IDO1 enzyme (Homo sapiens, UniProt P14902); assay: IDO1 inhibition assay by the spectrometric method (pDMAB); assay type: biochemical; conditions: purified human IDO1; spectrophotometric; mean of three independent assays; read-out: hIDO1 IC50
# T1 construct: made in house; host or cells: Escherichia coli M15 (pQE30 vector with pREP4 plasmid)
# T1 sequence (P14902 whole entry): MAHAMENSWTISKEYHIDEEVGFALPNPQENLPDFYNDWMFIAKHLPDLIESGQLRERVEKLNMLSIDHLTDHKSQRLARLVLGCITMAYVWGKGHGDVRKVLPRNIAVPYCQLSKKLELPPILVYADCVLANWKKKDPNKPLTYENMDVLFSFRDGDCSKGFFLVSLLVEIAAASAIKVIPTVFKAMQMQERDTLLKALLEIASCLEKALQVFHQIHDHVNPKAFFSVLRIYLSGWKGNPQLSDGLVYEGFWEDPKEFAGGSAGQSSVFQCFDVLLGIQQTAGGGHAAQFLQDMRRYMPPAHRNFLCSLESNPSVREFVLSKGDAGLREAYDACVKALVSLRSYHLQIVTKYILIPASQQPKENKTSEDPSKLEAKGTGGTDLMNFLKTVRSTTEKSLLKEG
# Method: Both IDO1 and TDO inhibition assays were performed according to the reported procedures[26]–[30],[50],[51]. […] In the assay system, the minimum and maximum amount of DMSO was 0.02% and 2%, respectively. […] The concentration of the inhibitors was varied from 100 µM to 32 nM by serial dilution technique. Then, the reaction was quenched with 100 µL of 30% (w/v) trichloroacetic acid and was incubated for further 15 minutes at 65 °C. After that, 2% (w/v) pDMAB was used to quantify the amount of kynurenine formation. The absorbance of the reaction mixture was recorded by UV-Vis spectrophotometer at 480 nm.
# [2] = biological target: T2, purified human TDO enzyme (Homo sapiens, UniProt P48775); assay: TDO inhibition assay by the spectrometric method; assay type: biochemical; conditions: spectrophotometric
# T2 construct: 6xHis (N); made in house; host or cells: Escherichia coli BL21 (DE3) (pET 28a vector)
# T2 sequence (P48775 whole entry): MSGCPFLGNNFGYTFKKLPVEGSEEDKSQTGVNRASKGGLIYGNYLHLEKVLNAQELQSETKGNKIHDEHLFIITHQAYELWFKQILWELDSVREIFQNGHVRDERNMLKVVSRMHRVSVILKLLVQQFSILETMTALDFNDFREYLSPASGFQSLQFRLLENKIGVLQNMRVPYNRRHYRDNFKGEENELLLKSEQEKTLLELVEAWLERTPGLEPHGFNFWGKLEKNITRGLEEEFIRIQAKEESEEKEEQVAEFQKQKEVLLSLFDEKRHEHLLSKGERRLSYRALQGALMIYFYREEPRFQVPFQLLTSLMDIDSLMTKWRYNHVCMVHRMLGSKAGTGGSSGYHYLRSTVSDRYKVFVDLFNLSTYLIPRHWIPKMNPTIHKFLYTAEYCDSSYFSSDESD
# Method: Both IDO1 and TDO inhibition assays were performed according to the reported procedures[26]–[30],[50],[51]. The solubility of the compounds in water was either moderate or poor. […] In the assay system, the minimum and maximum amount of DMSO was 0.02% and 2%, respectively. The standard reaction mixture (500 μL) containing KPB (100 mM, pH 6.5 for IDO1 enzyme and 50 mM, pH 8.0 for TDO enzyme), sodium ascorbate (20 mM), methylene blue (10 µM), catalase (240 nM, from bovine liver), L-Trp (150 µM), purified enzyme (40 nM for IDO1 and 25 nM for TDO), DMSO (0.05%, v/v), Triton-X 100 (0.01%, v/v) and inhibitors was incubated at 37 °C for 1 hour. The concentration of the inhibitors was varied from 100 µM to 32 nM by serial dilution technique. Then, the reaction was quenched with 100 µL of 30% (w/v) trichloroacetic acid and was incubated for further 15 minutes at 65 °C. After that, 2% (w/v) pDMAB was used to quantify the amount of kynurenine formation. The absorbance of the reaction mixture was recorded by UV-Vis spectrophotometer at 480 nm. The Km = 59.76 µM and Kcat = 6.18 sec^−1.
IC50 [1] [µM],Structure (SMILES),further results
7.08 ± 0.691,Cc1ccc(-c2n[nH]nc2C(N)=O)cc1 [Compound 3b],
0.624 ± 0.023,NC(=O)c1n[nH]nc1-c1ccc(Cl)cc1 [Compound 3g],% of Enzyme inhibition (TDO) ([2]; 32 nM): 5%; % of Enzyme inhibition (TDO) ([2]; 160 nM): 8%; % of Enzyme inhibition (TDO) ([2]; 800 nM): 15%; % of Enzyme inhibition (TDO) ([2]; 4 µM): 27%; % of Enzyme inhibition (TDO) ([2]; 20 µM): 35%; % of Enzyme inhibition (TDO) ([2]; 100 µM): 39%
2.94 ± 0.034,NC(=O)c1n[nH]nc1-c1ccc(F)cc1 [Compound 3f],
3.81 ± 0.24,O=C(N/C(Cc1ccc(F)c(F)c1)=N\O)c1n[nH]nc1-c1ccc(F)c(F)c1 [Compound 4h],
5.156 ± 0.011,NC(=O)c1n[nH]nc1-c1ccc(Br)cc1 [Compound 3h],
2.69 ± 0.055,NC(=O)c1n[nH]nc1-c1cccc(Cl)c1 [Compound 3d],
1.7 ± 0.061,CCOC(=O)c1n[nH]nc1-c1ccc(C)cc1 [Compound 2b],
0.392 ± 0.084,CCOC(=O)c1n[nH]nc1-c1ccc(Cl)cc1 [Compound 2g],% of Enzyme inhibition (TDO) ([2]; 32 nM): 16%; % of Enzyme inhibition (TDO) ([2]; 160 nM): 18%; % of Enzyme inhibition (TDO) ([2]; 800 nM): 23%; % of Enzyme inhibition (TDO) ([2]; 4 µM): 28%; % of Enzyme inhibition (TDO) ([2]; 20 µM): 36%; % of Enzyme inhibition (TDO) ([2]; 100 µM): 46%
8.09 ± 0.21,CCOC(=O)c1n[nH]nc1-c1ccc(F)cc1 [Compound 2f],
1.83 ± 0.126,NC(=O)c1n[nH]nc1-c1ccc(F)c(Cl)c1 [Compound 3k],
18.7 ± 0.398,O=C(NC1C2CC3CC(C2)CC1C3)c1n[nH]nc1-c1ccc(Cl)c(Cl)c1 (stereo not shown) [Compound 4e],
1.69 ± 0.102,CCOC(=O)c1n[nH]nc1-c1ccc(F)c(Cl)c1 [Compound 2k],
31.4 ± 4.21,CCOC(=O)c1n[nH]nc1-c1cccc(F)c1 [Compound 2c],

# Second part, the compound before the results:
Structure (SMILES),IC50 [1] [µM],further results
"c1ccc(-c2nn[nH]c2-c2ccccc2)cc1 [Compound 1a, 4,5-diphenyl 2H-1,2,3-triazole]",90 ± 2.94,inhibition at 0.032 µM ([2]; 32 nM): 8%; inhibition at 0.16 µM ([2]; 160 nM): 10%; inhibition at 0.8 µM ([2]; 800 nM): 19%; inhibition at 4 µM ([2]; 4 µM): 28%; inhibition at 20 µM ([2]; 20 µM): 40%; inhibition at 100 µM ([2]; 100 µM): 59%
Fc1cccc(-c2n[nH]nc2-c2cccc(F)c2)c1 [Compound 1c],4.99 ± 0.057,
Brc1cccc(-c2n[nH]nc2-c2cccc(Br)c2)c1 [Compound 1e],21.9 ± 1.27,
CCOC(=O)c1n[nH]nc1-c1ccc(F)c(Br)c1 [2 l],3.04 ± 0.091,
Clc1ccc(-c2n[nH]nc2-c2ccc(Cl)cc2)cc1 [Compound 1g],3.21 ± 0.1,
Clc1ccc(-c2n[nH]nc2-c2ccc(Cl)c(Cl)c2)cc1Cl [Compound 1j],12.9 ± 0.191,
